Measurements taken from ChEMBL document CHEMBL5230129, “Antibacterial activities with the structure-activity relationship of coumarin derivatives” (2020).
Converted amounts (≈) assume the structure as drawn.

Columns and labels:
Format in all cases: functional
Pseudomonas aeruginosa [1] = assay: Antibacterial activity against Pseudomonas aeruginosa assessed as zone of inhibition incubated for 24 to 48 hrs by agar well diffusion assay; settings: time 24-48 hrs
Staphylococcus aureus [2] = assay: Antibacterial activity against Staphylococcus aureus assessed as zone of inhibition incubated for 24 to 48 hrs by agar well diffusion assay; settings: time 24-48 hrs
Escherichia coli [3] = assay: Antibacterial activity against Escherichia coli ATCC 25922 assessed as zone of inhibition incubated for 24 hrs by paper disk method
Pseudomonas aeruginosa [4] = assay: Antibacterial activity against Pseudomonas aeruginosa ATCC 27853 assessed as zone of inhibition incubated for 24 hrs by paper disk method
Staphylococcus aureus [5] = assay: Antibacterial activity against Staphylococcus aureus ATCC 25923 assessed as zone of inhibition incubated for 24 hrs by paper disk method
Escherichia coli [6] = assay: Antibacterial activity against Escherichia coli NCIM 2256 assessed as inhibition of bacterial growth incubated for 24 hrs by serial twofold dilution assay
Pseudomonas fluorescens = assay: Antibacterial activity against Pseudomonas fluorescens NCIM 2173 assessed as inhibition of bacterial growth incubated for 24 hrs by serial twofold dilution assay
[7] = system: Sphingomonas paucimobilis; assay: Antibacterial activity against Flavobacterium devorans ATCC 10829 assessed as inhibition of bacterial growth incubated for 24 hrs by serial twofold dilution assay
Escherichia coli [8] = assay: Antibacterial activity against Escherichia coli MTCC 739 assessed as inhibition of bacterial growth incubated for 24 hrs by spectrophotometric assay
Helicobacter pylori = assay: Antibacterial activity against Helicobacter pylori ATCC43504 assessed as inhibition of bacterial growth incubated for 72 hrs by micro-dilution broth assay
Escherichia coli [9] = assay: Antibacterial activity against Escherichia coli MTCC 1586 assessed as zone of inhibition incubated overnight by Kirby-Bauer disc diffusion method
Staphylococcus aureus [10] = assay: Antibacterial activity against Staphylococcus aureus MTCC 740 assessed as zone of inhibition incubated overnight by Kirby-Bauer disc diffusion method
Escherichia coli [11] = assay: Antibacterial activity against Escherichia coli MTCC 40 assessed as inhibition of bacterial growth incubated for 24 hrs by well-plate method
Staphylococcus aureus [12] = assay: Antibacterial activity against Staphylococcus aureus MTCC 121 assessed as inhibition of bacterial growth incubated for 24 hrs by well-plate method
Escherichia coli [13] = assay: Antibacterial activity against Escherichia coli MTCC 40 assessed as zone of inhibition incubated for 24 hrs by well-plate method
Staphylococcus aureus [14] = assay: Antibacterial activity against Staphylococcus aureus MTCC 121 assessed as zone of inhibition incubated for 24 hrs by well-plate method
Staphylococcus aureus [15] = assay: Antibacterial activity against Staphylococcus aureus MTCC 3160 assessed as inhibition of bacterial growth by broth micro dilution assay
Escherichia coli [16] = assay: Antibacterial activity against Escherichia coli assessed as zone of inhibition incubated for 24 hrs by well-diffusion method
Pseudomonas aeruginosa [17] = assay: Antibacterial activity against Pseudomonas aeruginosa assessed as zone of inhibition incubated for 24 hrs by well-diffusion method
Staphylococcus aureus [18] = assay: Antibacterial activity against Staphylococcus aureus assessed as zone of inhibition incubated for 24 hrs by well-diffusion method
Micrococcus luteus = assay: Antibacterial activity against Micrococcus luteus assessed as zone of inhibition incubated for 24 hrs by well-diffusion method
Pseudomonas aeruginosa [19] = assay: Antibacterial activity against Pseudomonas aeruginosa MTCC 1034 assessed as inhibition of bacterial growth by broth micro dilution assay
Staphylococcus aureus [20] = assay: Antibacterial activity against Staphylococcus aureus ATCC-29213 assessed as inhibition of bacterial growth incubated for 16 hrs by agar-well diffusion assay
Pseudomonas aeruginosa [21] = assay: Antibacterial activity against Pseudomonas aeruginosa assessed as inhibition of bacterial growth incubated for 24 hrs by broth microdilution assay
Staphylococcus aureus [22] = assay: Antibacterial activity against Staphylococcus aureus NCTC-7447 assessed as zone of inhibition incubated for 24 hrs by paper disk diffusion assay

COc1cc(COc2cn(CCOc3cc(=O)oc4ccccc34)nn2)ccc1/C=C/C(=O)/C=C/c1ccc(OC)c(OC)c1
inhibition zone (IZ) (Pseudomonas aeruginosa [1]): 7 mm
inhibition zone (IZ) (Staphylococcus aureus [2]): 8 mm

COc1ccc(CNC(=O)COc2cc(=O)oc3ccccc23)c(OC)c1
inhibition zone (IZ) (Escherichia coli [3]): 13 mm
inhibition zone (IZ) (Pseudomonas aeruginosa [4]): 12 mm
inhibition zone (IZ) (Staphylococcus aureus [5]): 10 mm

CC1(C)S[C@@H]2[C@H](NC(=O)[C@H](N)c3ccccc3)C(=O)N2[C@H]1C(=O)O [AMPICILLIN]
MIC (Escherichia coli [6]): 4 µg/mL (≈ 11.4 µM)
MIC (Pseudomonas fluorescens): 4 µg/mL (≈ 11.4 µM)
MIC [7]: 4 µg/mL (≈ 11.4 µM)
MIC (Escherichia coli [8]): 6.25 µg/mL (≈ 17.9 µM)

Cc1cc(=O)oc2cc(O)ccc12 [HYMECROMONE]
MIC (Helicobacter pylori): 50 µg/mL (≈ 284 µM)

CC[N+](CC)(CC)CCCCCCCCNCc1cn(Cc2cc(=O)oc3c(OC)c4c(cc23)CCC(C)(C)O4)nn1.[Br-]
inhibition zone (IZ) (Escherichia coli [9]): 2 mm
inhibition zone (IZ) (Staphylococcus aureus [10]): 0 mm

CN[C@@H]1[C@H](O[C@H]2[C@H](O[C@H]3[C@H](O)[C@@H](O)[C@H](N=C(N)N)[C@@H](O)[C@@H]3N=C(N)N)O[C@@H](C)[C@]2(O)C=O)O[C@@H](CO)[C@H](O)[C@H]1O [STREPTOMYCIN]
MIC (Escherichia coli [11]): 12.5 µg/mL (≈ 21.5 µM)
MIC (Staphylococcus aureus [12]): 12.5 µg/mL (≈ 21.5 µM)
inhibition zone (IZ) (Escherichia coli [13]): 22 mm
inhibition zone (IZ) (Staphylococcus aureus [14]): 20 mm

O=c1cc(OCc2cn(CN3CCN(c4ccccc4F)CC3)c(=S)s2)c2ccccc2o1
MIC (Escherichia coli [8]): 12.5 µg/mL (≈ 25.8 µM)

Cc1cc(=O)oc2c1=CCC(Cl)C=2C1C(C#N)=C(N)Oc2c1c(=O)oc1ccccc21 (stereo not given)
MIC (Staphylococcus aureus [15]): 0.8 µg/mL (≈ 1.84 µM)

CO/N=C(\C(=O)N[C@@H]1C(=O)N2C(C(=O)O)=C(COC(C)=O)CS[C@H]12)c1csc(N)n1 [CEFOTAXIME]
inhibition zone (IZ) (Escherichia coli [16]): 11 mm
inhibition zone (IZ) (Pseudomonas aeruginosa [17]): 11 mm
inhibition zone (IZ) (Staphylococcus aureus [18]): 11 mm
inhibition zone (IZ) (Micrococcus luteus): 11 mm

Cc1cc(=O)oc2c1=CCC(O)C=2C1C(C#N)=C(N)Oc2c1c(=O)oc1ccccc21 (stereo not given)
MIC (Staphylococcus aureus [15]): 0.4 µg/mL (≈ 0.961 µM)
MIC (Pseudomonas aeruginosa [19]): 1.6 µg/mL (≈ 3.84 µM)

COc1cc(COc2cn(CCOc3cc(=O)oc4ccccc34)nn2)ccc1/C=C/C(=O)/C=C/c1cc(OC)c(OC)c(OC)c1
inhibition zone (IZ) (Staphylococcus aureus [2]): 7 mm

O=c1oc2cc(Br)ccc2cc1-c1csc(N/N=C/c2cn(-c3ccccc3)nc2-c2cc3ccccc3oc2=O)n1
MIC (Escherichia coli [11]): 12.5 µg/mL (≈ 19.6 µM)
MIC (Staphylococcus aureus [12]): 50 µg/mL (≈ 78.6 µM)
inhibition zone (IZ) (Escherichia coli [13]): 22 mm
inhibition zone (IZ) (Staphylococcus aureus [14]): 22 mm

CC[N+](CC)(CC)CCCCCCCCNCc1cn(Cc2cc(=O)oc3c(O)c4c(cc23)CCC(C)(C)O4)nn1.[Br-]
inhibition zone (IZ) (Escherichia coli [9]): 2 mm
inhibition zone (IZ) (Staphylococcus aureus [10]): 2 mm

CC[N+](CC)(CC)CCCCCCNCc1cn(Cc2cc(=O)oc3cc4c(cc23)CCC(C)(C)O4)nn1.[Br-]
inhibition zone (IZ) (Escherichia coli [9]): 10 mm
inhibition zone (IZ) (Staphylococcus aureus [10]): 12 mm

COc1ccc2c(CC(=O)O)cc(=O)oc2c1
MIC (Helicobacter pylori): 49 µg/mL (≈ 209 µM)

COc1cccc(/C=C/C(=O)/C=C/c2ccc(COc3cn(CCOc4cc(=O)oc5ccccc45)nn3)cc2OC)c1
inhibition zone (IZ) (Pseudomonas aeruginosa [1]): 7 mm
inhibition zone (IZ) (Staphylococcus aureus [2]): 8 mm

CC(C)(C)NC(=O)c1c(-c2ccccc2)nc(SCc2cc(=O)oc3ccc4ccccc4c23)[nH]c1=O
MIC (Staphylococcus aureus [20]): 2.5 µg/mL (≈ 4.89 µM)

O=c1oc2ccccc2c(O)c1C(c1c(Cl)cccc1Cl)c1c(O)c2ccccc2oc1=O
inhibition zone (IZ) (Escherichia coli [16]): 10 mm
inhibition zone (IZ) (Pseudomonas aeruginosa [17]): 10 mm
inhibition zone (IZ) (Staphylococcus aureus [18]): 10 mm
inhibition zone (IZ) (Micrococcus luteus): 10 mm

O=c1cc(OCc2cn(CN3CCN(c4ccc(F)cc4)CC3)c(=S)s2)c2ccccc2o1
MIC (Escherichia coli [8]): 12.5 µg/mL (≈ 25.8 µM)

C[C@H]1COc2c(N3CCN(C)CC3)c(F)cc3c(=O)c(C(=O)O)cn1c23.C[C@H]1COc2c(N3CCN(C)CC3)c(F)cc3c(=O)c(C(=O)O)cn1c23.O [LEVOFLOXACIN]
MIC (Pseudomonas aeruginosa [21]): 3.12 µg/mL

O=c1oc2ccccc2c(O)c1-c1cc[nH]n1
inhibition zone (IZ) (Staphylococcus aureus [22]): 10 mm

CO/N=C(\C(=O)N[C@@H]1C(=O)N2C(C(=O)O)=C(COC(N)=O)CS[C@H]12)c1ccco1 [CEFUROXIME]
MIC (Pseudomonas aeruginosa [21]): 98 µg/mL (≈ 231 µM)
